In patent US8461118B2, “Lytic peptides having anti-proliferative activity against prostate cancer cells” (Tuskegee University, priority 2011, dated 2013):
“And” between values parts separate entries of the source, which are not always exact repeats. Equal values may be shown once. “Also recorded” adds a separate entry of the source. Ends that are not written are not given here.

Tests used:
[1] = test system: normal primary hPrEC cells; test: MTT cytotoxicity on normal primary prostate epithelial cells; type: cell-based, human; settings: 0-20 μM
Excerpt: (§1) To evaluate the efficacy of these peptides in inhibiting prostate cancer, a prostate cancer progression model was followed that utilized several different cell lines in various experiments as described herein to form this model, including the known cell lines DU-145, PC-3, LNCaP, and hPrEC. […] This cell line has both LHRH-R and epidermal growth factor receptors (“EGFR”), and produces the EGFR ligands, transforming growth factor α (TGF-α) and EGF. The androgen-unresponsive PC-3 cell line is derived from a human bone metastasis of a grade IV prostatic adenocarcinoma, while the androgen-responsive LNCaP cell line is derived from a human lymph node metastasis. […]
(§2) In the various experiments described below, unless otherwise noted, the cytotoxicity of the various peptides when measured was evaluated using the methylthiazol tetrazolium (“MTT”) assay (Sigma Aldrich, MO), which determines the number of viable cells from the formazan crystals produced by metabolic activity. […] The quantity of solublized formazan per well was determined by a Spectromax plate reader at 540 nm (Molecular Devices, CA). […]

[2] = test system: PC-3 cells treated with siRNA-LHRH-R; test: Peptide sensitivity of PC-3 cells after siRNA-LHRH-R knockdown (trypan blue exclusion); type: cell-based, human; settings: 100 nM siRNA-LHRH-R
Method: To more firmly establish the significance of the mLHRH sequence on peptide activity, PC-3 cells were treated with siRNA-LHRH at 50 nM and 100 nM concentrations and assayed LHRH levels by immunofluorescence. In this Experiment, PC-3 cells were treated with siRNA-LHRH-R at 50 nM and 100 nM, and compared to control. For this experiment, a total of about 2×10^5 cells, equaling approximately 60-70% confluency, were plated in six-well plates. The LHRH-R siRNA (Santa Cruz, Calif.) was diluted in […] of Opti-MEM (Invitrogen, CA). A […] aliquot of Lipofectamine 2000 (Invitrogen, CA) was diluted in […] of Opti-MEM and incubated for 5 min at room temperature. The diluted siRNA and Lipofectamine 2000 were mixed according to manufacturer's directions and incubated for 20 min at room temperature. The resulting complexes were added to each well and incubated for 24 h. […]
LHRH-R expression was determined by immuno-fluorescence staining with 4′,6-diamidino-2-phenylindole (“DAPI”) utilizing anti-LHRH-R antibody (Lab Vision, CA) and Alexa 488 secondary antibody (Invitrogen, CA).
For purposes of comparison, PC-3 cells were treated with JC21 mLHRH or JCHmLHRH in the presence or absence of 100 nM siRNA-LHRH-R or siRNA-scramble treated cells. Cell viability was determined by trypan blue exclusion, and the results are depicted in the graph of FIG. 3C.

PC-3 cells [3] = test: Real-time imaging, trypan blue exclusion and Annexin V in PC-3 cells; type: cell-based, human
Method: In the various experiments described below, unless otherwise noted, real-time imaging of cell cultures was performed utilizing an Olympus DSU (Disk Scanning Units) Confocal microscope (Olympus America Inc., PA). The subject cells were maintained in 5% CO2 at 37° C. in an incubation chamber (Pathology Devices, Inc., MD). Images were taken every 15 min and processed utilizing MetaMorph Imaging Software (Molecular Devices, CA).
Although the mechanism associated with the anti-tumor activity of lytic peptides has not been defined, without wishing to be limited to any mechanism of action, it is believed that direct interaction of the present lytic peptides with the cell membrane causes the electrochemical potential to collapse, resulting in cell death. To investigate the potential mechanism of action, a qualitative approach utilizing real-time imaging was employed in conjunction with monitoring of a classic marker of apoptosis, Annexin V. Since the mechanism of death was unknown, real-time imaging was employed for cells in a 5% CO2 and temperature-regulated (37° C.) chamber to monitor the effects of JC21mLHRH and JCHmLHRH on PC-3 cellular responses.
PC-3 cell cultures were exposed to JCHmLHRH (5 μM) or JC21mLHRH (8 μM) and imaged continuously for 24 h with time-lapse microscopy. FIG. 5A comprises eight black and white photographs depicting real-time images of PC-3 cells after treatment with lytic peptides JCHmLHRH (5 μM) or JC21mLHRH (8 μM) taken with time-lapse microscopy under 5% CO2 and 37° C. at 0, 3, 6, and 12 hours post administration. […] There were different modes of action by which JCHmLHRH and JC21mLHRH caused cell death.
FIG. 5B is a graph reporting experimental results for cell percentage corresponding to the images of FIG. 5A. Quantification of total cell number and cell viability was determined by trypan blue exclusion after exposure to JCHmLHRH (5 μM) or JC21mLHRH (8 μM) over a 24 h period. The results shown in the graph of FIG. 5B are representative of three individual experiments performed in triplicate (where the horizontal line at approximately 60% in the graph indicates significance at p<0.0001). The data indicates a rapid mode of action was observed by both the real-time imaging and trypan blue staining mechanisms, with nearly 80% cell death after only 6 h of treatment and approximately 100% cell death after the 24 h period.

RFP-PC-3 cells = test: Co-culture differential fluorescence, RFP-PC-3 cells; type: cell-based, human; settings: JCHmLHRH 5 μM or JC21mLHRH 8 μM, 12 hr
Method: In the various experiments described below, unless otherwise noted, co-cultures were prepared and utilized as described by Yates et al. (see Yates C, Shepard C R, Papworth G, Dash A, Beer Stolz D, Tannenbaum S, et al., Novel three-dimensional organotypic liver bioreactor to directly visualize early events in metastatic progression, Adv Cancer Res, 2007; 97:225-46; and Yates C, Shepard C R, Stolz D B, Wells A., Co-culturing human prostate carcinoma cells with hepatocytes leads to increased expression of E-cadherin, Br J Cancer 2007; 96:1246-52), with certain modifications as noted herein. The co-cultures consisted of 50,000 cells/cm^2 of GFP-HS-27a bone marrow stromal cells and 2000 cells/cm^2 of red fluorescent protein PC-3 prostate cancer cells (“RFP-PC-3”), and were maintained in Dulbecco's modified Eagle medium, and cell death was monitored in real-time (as described above) by differential fluorescence. To determine relative intensity, the total intensity area of each image as well as the threshold intensity for each channel was measured utilizing Metamorph Imaging Software (Molecular Devices, Inc., CA), and the significance between the two intensities was then analyzed statistically. All quantitative data was normalized to each control image. […]

[4] = test system: GFP-HS-27a bone marrow stromal cells; test: Co-culture differential fluorescence, GFP-HS-27a bone marrow stromal cells; type: cell-based; settings: for relative intensity of GFP-HS-27a cells: JCHmLHRH 5 μM or JC21mLHRH 8 μM, 12 hr
Method: In the various experiments described below, unless otherwise noted, co-cultures were prepared and utilized as described by Yates et al. (see Yates C, Shepard C R, Papworth G, Dash A, Beer Stolz D, Tannenbaum S, et al., Novel three-dimensional organotypic liver bioreactor to directly visualize early events in metastatic progression, Adv Cancer Res, 2007; 97:225-46; and Yates C, Shepard C R, Stolz D B, Wells A., Co-culturing human prostate carcinoma cells with hepatocytes leads to increased expression of E-cadherin, Br J Cancer 2007; 96:1246-52), with certain modifications as noted herein. The co-cultures consisted of 50,000 cells/cm^2 of GFP-HS-27a bone marrow stromal cells and 2000 cells/cm^2 of red fluorescent protein PC-3 prostate cancer cells (“RFP-PC-3”), and were maintained in Dulbecco's modified Eagle medium, and cell death was monitored in real-time (as described above) by differential fluorescence. To determine relative intensity, the total intensity area of each image as well as the threshold intensity for each channel was measured utilizing Metamorph Imaging Software (Molecular Devices, Inc., CA), and the significance between the two intensities was then analyzed statistically. All quantitative data was normalized to each control image.
For this experiment, RFP-PC-3 cell cultures, GFP-HS-27a cell cultures, and RFP-PC-3/GFP-HS-27a cell co-cultures were exposed to JCHmLHRH (5 μM) and JC21mLHRH (8 μM), and the various cultures were monitored by differential immunofluorescence over 12 h period. Images comprising black and white photographs of the cultures at the 0 hr, 6 hr, and 12 hr marks following administration of JCHmLHRH and JC21mLHRH are shown in FIG. 5C and FIG. 5D, respectively. Two trials of this experiment were conducted with similar results, and the photographs of FIG. 5C and FIG. 5D are illustrative of the results of both trials. […] Further, the RFP-PC-3/GFP-HS-27a co-culture images at the 6 hr and 12 hr marks largely resemble the corresponding time images for GFP-HS-27a cultures in relative intensity.
FIG. 5E in turn provides a chart showing the relative intensity of total areas measured under differential fluorescence of the co-culture cells after they were exposed to JCHmLHRH and JC21mLHRH in this experiment.

PC-3 cells [5] = test: PC-3 growth recovery after 24 h peptide pretreatment; type: cell-based, human; settings: 24 h pretreatment JCHmLHRH 5 μM or JC21mLHRH 8 μM, 3 days
Method: This experiment was performed to determine whether cancerous cells could recover after JCHmLHRH or JC21mLHRH exposure. PC-3 cell cultures were exposed to JCHmLHRH (5 μM) or JC21mLHRH (8 μM) for 24 hours. Growth was measured over a 3-day period. Growth of pre-treatment and post-treatment groups were compared over time.

PC-3 cells [6] = type: cell-based, human; settings: for IC50: MTT, 72 h exposure
Excerpt: To evaluate the efficacy of these peptides in inhibiting prostate cancer, a prostate cancer progression model was followed that utilized several different cell lines in various experiments as described herein to form this model, including the known cell lines DU-145, PC-3, LNCaP, and hPrEC. […] This cell line has both LHRH-R and epidermal growth factor receptors (“EGFR”), and produces the EGFR ligands, transforming growth factor α (TGF-α) and EGF. The androgen-unresponsive PC-3 cell line is derived from a human bone metastasis of a grade IV prostatic adenocarcinoma, while the androgen-responsive LNCaP cell line is derived from a human lymph node metastasis. For all experiments described herein, normal primary human prostate epithelial cells (“hPrEC”) were obtained from Clonetics (Lonza Inc., Walkersville, Md.), while the other cell lines were purchased from ATCC and maintained in T-media (Gibco Invitrogen, CA) supplemented with 10% fetal bovine serum (FBS) (Gibco Invitrogen, CA) and 1% penicillin/streptomycin (Cellgro Mediatech, Inc., VA).
In the various experiments described below, unless otherwise noted, the cytotoxicity of the various peptides when measured was evaluated using the methylthiazol tetrazolium (“MTT”) assay (Sigma Aldrich, MO), which determines the number of viable cells from the formazan crystals produced by metabolic activity. The cells in such cytotoxicity experiments were plated in 96-well plates at 2.5×10^3 cells/well, and were allowed to reattach overnight. They were then exposed to the test lytic peptides (1-20 μM) for 72 h. The MTT reagent [3-(4,5-dimethylthiazol-2-yl)-2,5-diphenyltetrazolium bromide], 50 μL) in T-media was added to each well, and the plates were incubated for 2 h. The supernatant media was aspirated, and formazan crystals were dissolved with […] dimethylsulfoxide per well at 37° C. for 10 min. The quantity of solublized formazan per well was determined by a Spectromax plate reader at 540 nm (Molecular Devices, CA). Each assay was performed at least three times with six replicates per data point.
For all experiments, unless otherwise noted, statistics were performed with Microsoft Excel. Independent Student's t-test was utilized to determine statistical differences between experimental subjects and control subjects. The IC50 values were derived through regression analysis of the continuous data by cubic spline interpolation utilizing Aabel™ (Gigawiz Ltd. Co., OK), a software application that integrates statistics (inferential and multivariate) with graphical representation.
To determine the effectiveness of JCH and JC21 with or without mLHRH conjugates, androgen-independent, highly metastatic PC-3 cells were exposed to the peptides in increasing concentrations (0-20 μM).
For this experiment, IC50 values were determined by interpolation of three individual experiments performed in quadruplicate at 50% cell death. All values were reported in the table of FIG. 2A were determined to be significant compared to control p<0.001. In the table, “n.d.” serves as an abbreviation for “not determined,” as tests were not conducted for JHC and JC21 against LNCaP and DU-145.

LNCaP cells = test: MTT cytotoxicity assay, LNCaP prostate cancer cells; type: cell-based, human; settings: 72 h exposure
Excerpt: as §1, §2

DU-145 cells = test: MTT cytotoxicity assay, DU-145 prostate cancer cells; type: cell-based, human; settings: 72 h exposure
Excerpt: as §1, §2

QHWSWGLRPGAFKKAFKKAKKAFKKAFKAFAFA [JC21mLHRH]
effect on hPrEC cell proliferation / toxicity [1]: neither JCHmLHRH nor JC21mLHRH causes appreciable decreases in hPrEC cell proliferation; also recorded: nontoxic
decrease in sensitivity to peptide on depletion of LHRH levels [2]: 50%
morphological changes in cells (PC-3 cells [3]; PC-3 cells, 3 h exposure, real-time imaging): morphological changes
cell death (PC-3 cells [3]; PC-3 cells, JCHmLHRH 5 μM or JC21mLHRH 8 μM, 6 h of treatment): ~80%
cell death (PC-3 cells [3]; PC-3 cells, JCHmLHRH 5 μM or JC21mLHRH 8 μM, after the 24 h period): approximately 100%
mode of cell death observed under microscope (PC-3 cells [3]; PC-3 cells, JCHmLHRH 5 μM or JC21mLHRH 8 μM, time-lapse microscopy): condensing of the cellular and nuclear membrane without bursting
expression of apoptotic marker Annexin V (PC-3 cells [3]; exposed PC-3 cells): did not observe expression of apoptotic marker Annexin V
relative intensity of RFP-PC-3 cells (RFP-PC-3 cells): approaches zero
toxicity to bone marrow stromal cells in co-culture [4]: nontoxic
relative intensity of GFP-HS-27a cells [4]: only decreases slightly
cell growth after pretreatment (PC-3 cells [5]): completely inhibited cell growth

AFKKAFKKAKKAFKKAFKAFAFA [JC21]
IC50 (PC-3 cells [6]): 9.25 µM

QHWSWGLRPGFALALKALKKALKKLKKALKKAL [JCHmLHRH]
IC50 (PC-3 cells [6]): 4.22 µM and 4.4 µM
IC50 (LNCaP cells): 4.36 µM and 4.4 µM
IC50 (DU-145 cells): 4.81 µM and 4.8 µM
effect on hPrEC cell proliferation / toxicity [1]: neither JCHmLHRH nor JC21mLHRH causes appreciable decreases in hPrEC cell proliferation; also recorded: nontoxic
toxicity to bone marrow stromal cells in co-culture [4]: nontoxic
relative intensity of GFP-HS-27a cells [4]: only decreases slightly

mLHRH: modified LHRH binding sequence, tryptophan in place of tyrosine, QHWSWGLRPG (ends and bridges not checked; listed as Homo sapiens)
cell death at higher concentrations (PC-3 cells [6]; mLHRH sequence alone): failed to cause 50% cell death
concentration causing a decrease in cell proliferation of PC-3 cells (as low as) (PC-3 cells [6]; mLHRH sequence alone): 1 µM

FALALKALKKALKKLKKALKKAL [JCH]
IC50 (PC-3 cells [6]): 6.67 µM
